Measurements: patent US9795139B2, “Molecules having pesticidal utility, and intermediates, compositions, and processes, related thereto” (priority 2015, dated 2017)

Legend:
Assay type in all cases: in vivo
[1] = test system: Green Peach Aphid (Myzus persicae, MYZUPE); assay: Bioassay on Green Peach Aphid (GPA), foliar spray on cabbage seedlings; settings: 72 h, 200 ppm foliar spray on cabbage seedlings, three days, Abbott corrected % control, read-out: GPA % Control (or Mortality) rating
Description: Certain molecules disclosed in this document were tested against GPA using procedures described in the following example. In the reporting of the results, the “GPA & YFM Rating Table” was used (See Table Section).
Cabbage seedlings grown in 3-inch pots, with 2-3 small (3-5 cm) true leaves, were used as test substrate. The seedlings were infested with 20-50 GPA (wingless adult and nymph stages) one day prior to chemical application. Four pots with individual seedlings were used for each treatment. Test molecules (2 mg) were dissolved in 2 mL of acetone/methanol (1:1) solvent, forming stock solutions of 1000 ppm test molecule.
The stock solutions were diluted 5× with 0.025% Tween 20 in water to obtain the solution at 200 ppm test molecule. A hand-held aspirator-type sprayer was used for spraying a solution to both sides of […] leaves until runoff. Reference plants (solvent check) were sprayed with the diluent only containing 20% by volume of acetone/methanol (1:1) solvent. Treated plants were held in a holding room for three days at approximately 25° C. and ambient relative humidity (RH) prior to grading. Evaluation was conducted by counting the number of live aphids per plant under a microscope. Percent control was measured using Abbott's correction formula (W. S. Abbott, “A Method of Computing the Effectiveness of an Insecticide” J. Econ. Entomol. 18 (1925), pp. 265-267) as follows. Corrected % Control=100*(X−Y)/X where X=No. of live aphids on solvent check plants and Y=No. of live aphids on treated plants. The results are indicated in the table entitled “Table ABC: Biological Results” (See Table Section).

[2] = test system: Yellow Fever Mosquito (Aedes aegypti, AEDSAE); settings: about 1 day-old larvae, 96-well plate from 4000 ppm DMSO master, 3 days at room temperature
In short: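 Each well was scored for mortality after 3 days at room temperature under a non-evaporative lid. Test molecules came from DMSO masters (4000 ppm stock) diluted with water/acetone 90:10 and dispensed into six replicate plates, which were then infested with roughly 1-day-old larvae in liver-powder water.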

[3] = test system: Beet Armyworm (Spodoptera exigua, LAPHEG); assay: Bioassay on Beet Armyworm (BAW), 128-well diet tray assay; settings: 168 h, 50 μg/cm^2 on artificial diet, second instar larvae, 25° C., five to seven days, average of eight wells, read-out: BAW % Control (or Mortality) rating
In short: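 Artificial diet surface-treated with 50 μg/cm^2 test molecule in 90:10 acetone-water, dried, then infested with one to five second instar larvae per well. Held covered and vented at 25° C., 14:10 light-dark for five to seven days; percent mortality recorded per well and averaged over eight wells.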

[4] = test system: Cabbage Looper (Trichoplusia ni, TRIPNI); assay: Bioassay on Cabbage Looper (CL), 128-well diet tray assay; settings: 168 h, 50 μg/cm^2 on artificial diet, second instar larvae, 25° C., five to seven days, average of eight wells, read-out: CL % Control (or Mortality) rating
In short: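 Using eight wells per molecule, artificial diet was dosed at 50 μg/cm^2 with compound in 90:10 acetone-water and dried before one to five second-instar larvae were added per well. Covered vented trays were kept at 25° C. with 14:10 light-dark for five to seven days, then per-well percent mortality was recorded and averaged.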

Compound | mortality at 200 ppm [1] [%] | YFM % Control (or Mortality) rating [2] | mortality at 50 µg/cm2 [3] [%] | mortality at 50 µg/cm2 [4] [%]
O=C(NC1CC(F)(F)C1)c1cc(NC(=O)[C@H]2[C@H](c3cc(Cl)cc(Br)c3)C2(Cl)Cl)ccc1Cl (relative stereo) [PF8, trans-5-(3-(3-Bromo-5-chlorophenyl)-2,2-dichlorocyclopropane-1-carboxamido)-2-chloro-N-(3,3-difluorocyclobutyl)benzamide] | 80 to 100 | D (No activity noticed in this bioassay) | 50 to 100 | 50 to 100
N#CC1(NC(=O)c2cc(NC(=O)C3C(c4ccc(Cl)c(Cl)c4)C3(Cl)Cl)ccc2Cl)CCC1 (stereo not drawn) [Molecule F14, trans-2-Chloro-N-(l-cyanocyclobutyl)-5-(2,2-dichloro-3-(3,4-dichlorophenyl)cyclopropanecarboxamido)benzamide] | 0 to 80 | A (80-100) | 50 to 100 | 50 to 100
